“And” between values parts separate entries of the source, which are not always exact repeats. Equal entries are not always repeated. Where two headings read alike, the source gives them in different places.
Key:
P. pacificus complex I = P. pacificus complex I (Pristionchus pacificus, UniProt A0A454XZ18+A0A8R1Z3U8+A4UAP3); test: In vitro complex I activity assay, P. pacificus mitochondria; format: biochemical
Protocol: (§1) Mitochondria were isolated from the following free-living nematode strains: C. elegans—N2, CB3474, ECA882, ECA917, ECA1075, ECA1080; C. briggsae—AF16; P. pacificus—PS312; and P. hermaphrodita—B178. With the exception of the P. hermaphrodita strain B178, adult worms of each strain were grown in bulk through liquid culture to obtain mitochondria in sufficient quantities. Due to poor growth in liquid media, mixed stage populations of P. hermaphrodita were washed off and collected from NGM plates seeded with OP50. The isolation of mitochondria from all free-living nematode strains followed the protocol previously outlined in Burns et al.[24]. In brief, a 1 L saturated culture of E. coli HB101 was concentrated 20-fold in 50 mL complete S-medium. ~500,000 L1 worms synchronized from an embryo preparation performed the day prior were added to the S-media/HB101 suspension and grown to adulthood over the course of 3.5 days at 20 °C with shaking at 165 rpm. Following growth, worms were collected in 10 ×15 mL conical tubes and washed 7 times in M9 buffer. Worm suspensions were then combined into a single 15 mL conical tube and diluted to a final volume of 15 mL with M9 buffer. 1 mL aliquots of worm suspension were then distributed to 15 × 1.5 mL screw-cap microcentrifuge tubes and were pelleted at 500 g for 1 min. Excess M9 was aspirated without disturbing the worm pellet. 600 μL ice-cold isolate buffer A (250 mM sucrose, 10 mM Tris (pH 7.5), 1 mM EDTA, 1 mM PMSF (freshly prepared)) and 300 μL cold glass beads were then added to each tube. Tubes were incubated on ice for 10 min, and the worms were then lysed by bead beating (6 x 30 s, with 1 min cooling intervals). Tubes containing worm lysate were centrifuged at 1,000 g for 10 min at 4 °C and the supernatant was transferred to 15 new microcentrifuge tubes on ice. The tubes were centrifuged a second time at 1,000 g for 10 min at 4 °C and the supernatant was once again transferred to 15 new microcentrifuge tubes on ice. These tubes were then centrifuged at 16,000 g for 10 min at 4 °C. The resulting mitochondrial pellet was washed twice by re-suspension in 300 μL of ice-cold isolate buffer B (250 mM sucrose, 10 mM Tris (pH 7.5), 1 mM EDTA). Following the final wash, isolation buffer was aspirated from each tube and the pellets were flash-frozen in ethanol/dry ice and stored at −80 °C until needed.
(§2) The enzymatic activities of individual ETC complexes (I-IV) were assessed spectrophotometrically in isolated mitochondria using a Varioskan LUX Multimode plate reader (ThermoFisher Scientific). Mitochondrial pellets previously isolated were thawed on ice and resuspended in ice-cold isolation buffer (250 mM sucrose, 10 mM Tris (pH 7.5), 1 mM EDTA). The BCA assay (Walker, 1994) was used to quantify the protein concentration of mitochondria suspensions; solutions were diluted to a concentration of 0.2 mg/mL for use in all assays. For the complex I assay, mitochondria pellets were freeze-thawed on ice three times to increase enzyme accessibility. […] 20 μL mitochondria suspension was then added/mixed with a pipette to initiate the reaction. Immediately following the addition of mitochondria, absorbance was measured (complex I and II: 600 nm; complex III and IV: 550 nm) in 30 s intervals over 15 min. Enzymatic activity was determined in each reaction by plotting absorbance versus time and calculating the slope of the curve during the initial linear phase of the reaction. […] Percent activity of each complex was calculated by dividing the enzyme-specific activity of each well by the enzyme-specific activity of the corresponding solvent controls.
(§3) Chemical solutions were prepared in complex I assay buffer composed of 25 mM KPi buffer (pH 7.5), 3 mg/mL bovine serum albumin (BSA), 80 μM NADH, 60 μM decylubiquinone, 160 μM DCIP, 2 μM antimycin A and 2 mM KCN. […]

C. elegans = C. elegans chemical screens of RIKEN NPD libraries at 50 μM (hit identification in KCN survival and development/viability assays); format: cell-based, Caenorhabditis elegans; settings: screened at 50 μM in triplicate, KCN = KCN survival assay, Dev. & Viability = development/viability assay
[1] = tested on: P. hermaphrodita complex I; test: In vitro complex I activity assay, P. hermaphrodita mitochondria; format: biochemical, Phasmarhabditis hermaphrodita; settings: purified mitochondria
Protocol: as §1, §2, §3

L1 wild-type C. elegans = test: 15-hour motility assay with drug alone (no KCN); format: cell-based, Caenorhabditis elegans; settings: 15 hour drug alone (without KCN) treatment
[2] = tested on: C. elegans ben-1 mutant strains ECA882, ECA917, ECA1075, ECA1080, CB3474; format: cell-based, Caenorhabditis elegans; settings: score 0-1 relative to DMSO, values >1 set to 1
H. polygyrus = settings: cited from earlier work
[3] = P. pacificus mitochondria, Mean of replicates, read-out: in vitro complex I activity relative to solvent control
[4] = P. pacificus mitochondria, Mean, read-out: in vitro complex I activity relative to solvent control
[5] = P. pacificus mitochondria, single replicate, read-out: in vitro complex I activity relative to solvent control

CC(C)Cc1ccc(C(C)c2nc3ccccc3n2C)cc1 (centres unmarked) [NPD8790]
remaining activity at 0.06 µM (P. pacificus complex I; P. pacificus mitochondria, 0.06 µM, Mean of replicates, read-out: in vitro complex I activity relative to solvent control): 105% | remaining activity at 0.13 µM (P. pacificus complex I; P. pacificus mitochondria, 0.13 µM, Mean of replicates, read-out: in vitro complex I activity relative to solvent control): 88% | remaining activity at 0.313 µM (P. pacificus complex I; [3]): 82% | remaining activity at 0.625 µM (P. pacificus complex I; [3]): 75.5% | remaining activity at 1.5 µM (P. pacificus complex I; [3]): 68.1% | remaining activity at 3 µM (P. pacificus complex I; [3]): 49.1% | remaining activity at 15 µM (P. pacificus complex I; [3]): 21.4% | remaining activity at 37.5 µM (P. pacificus complex I; [3]): 16.3% | remaining activity at 75 µM (P. pacificus complex I; [3]): 11.3% | remaining activity at 0.0001 µM (P. pacificus complex I; [4]): 85.3% | remaining activity at 0.0001 µM (P. pacificus complex I; [5]): 79.8% | remaining activity at 0.0005 µM (P. pacificus complex I; [4]): 88.9% | remaining activity at 0.0005 µM (P. pacificus complex I; [5]): 82.3% | remaining activity at 0.001 µM (P. pacificus complex I; P. pacificus mitochondria, 0.001 µM, Mean, read-out: in vitro complex I activity relative to solvent control): 112% | remaining activity at 0.0025 µM (P. pacificus complex I; P. pacificus mitochondria, 0.0025 µM, Mean, read-out: in vitro complex I activity relative to solvent control): 110% | remaining activity at 0.005 µM (P. pacificus complex I; P. pacificus mitochondria, 0.005 µM, Mean, read-out: in vitro complex I activity relative to solvent control): 117% | remaining activity at 0.013 µM (P. pacificus complex I; P. pacificus mitochondria, 0.013 µM, Mean, read-out: in vitro complex I activity relative to solvent control): 105% | remaining activity at 0.025 µM (P. pacificus complex I; P. pacificus mitochondria, 0.025 µM, Mean, read-out: in vitro complex I activity relative to solvent control): 107% | remaining activity at 0.063 µM (P. pacificus complex I; P. pacificus mitochondria, 0.063 µM, Mean, read-out: in vitro complex I activity relative to solvent control): 105% | remaining activity at 0.125 µM (P. pacificus complex I; P. pacificus mitochondria, 0.125 µM, Mean, read-out: in vitro complex I activity relative to solvent control): 88% | remaining activity at 0.313 µM (P. pacificus complex I; [4]): 82% | remaining activity at 0.313 µM (P. pacificus complex I; [5]): 71.1% | remaining activity at 0.625 µM (P. pacificus complex I; [4]): 75.5% | remaining activity at 1.5 µM (P. pacificus complex I; [4]): 68.1% | remaining activity at 3 µM (P. pacificus complex I; [4]): 49.1% | remaining activity at 15 µM (P. pacificus complex I; [4]): 21.4% | remaining activity at 37.5 µM (P. pacificus complex I; [4]): 16.3% | remaining activity at 75 µM (P. pacificus complex I; [4]): 11.3% | IC50 (P. pacificus complex I; purified mitochondria): 2.1 µM | Hit Type (C. elegans; […]): KCN | IC50 [1]: 1.1 µM

Cc1cc(O)c2c(c1)O[C@@]1(C)CC[C@H]3C(C)(C)CCC[C@]34CO[C@@H]2[C@H]41 [Siccanin]
Value relative to DMSO control, drug alone (without KCN) (L1 wild-type C. elegans; dose 0.1 µM, Mean of replicates): 1.015 | Value relative to DMSO control, drug alone (without KCN) (L1 wild-type C. elegans; dose 0.1 µM, individual replicates): 1.185 and 1.067 and 1.014 and 0.891 and 0.918 | Value relative to DMSO control, drug alone (without KCN) (L1 wild-type C. elegans; dose 0.2 µM, Mean of replicates): 1.093 | Value relative to DMSO control, drug alone (without KCN) (L1 wild-type C. elegans; dose 0.2 µM, individual replicates): 1.232 and 1.040 and 1.048 and 0.936 and 1.206 | Value relative to DMSO control, drug alone (without KCN) (L1 wild-type C. elegans; dose 0.4 µM, Mean of replicates): 1.048 | Value relative to DMSO control, drug alone (without KCN) (L1 wild-type C. elegans; dose 0.4 µM, individual replicates): 1.109 and 1.211 and 1.036 and 0.917 and 0.964 | Value relative to DMSO control, drug alone (without KCN) (L1 wild-type C. elegans; dose 0.8 µM, Mean of replicates): 1.013 | Value relative to DMSO control, drug alone (without KCN) (L1 wild-type C. elegans; dose 0.8 µM, individual replicates): 1.207 and 1.062 and 0.959 and 0.891 and 0.945 | Value relative to DMSO control, drug alone (without KCN) (L1 wild-type C. elegans; dose 3.1 µM, Mean of replicates): 1.008 | Value relative to DMSO control, drug alone (without KCN) (L1 wild-type C. elegans; dose 3.1 µM, individual replicates): 1.037 and 1.098 and 0.979 and 0.904 and 1.020 | Value relative to DMSO control, drug alone (without KCN) (L1 wild-type C. elegans; dose 6.3 µM, Mean of replicates): 0.898 | Value relative to DMSO control, drug alone (without KCN) (L1 wild-type C. elegans; dose 6.3 µM, individual replicates): 0.890 and 0.970 and 0.950 and 0.655 and 1.026 | Value relative to DMSO control, drug alone (without KCN) (L1 wild-type C. elegans; dose 12.5 µM, Mean of replicates): 0.790 | Value relative to DMSO control, drug alone (without KCN) (L1 wild-type C. elegans; dose 12.5 µM, individual replicates): 1.073 and 0.897 and 0.844 and 0.477 and 0.657 | Value relative to DMSO control, drug alone (without KCN) (L1 wild-type C. elegans; dose 25 µM, Mean of replicates): 0.737 | Value relative to DMSO control, drug alone (without KCN) (L1 wild-type C. elegans; dose 25 µM, individual replicates): 0.991 and 0.757 and 0.575 and 0.705 and 0.658 | Value relative to DMSO control, drug alone (without KCN) (L1 wild-type C. elegans; dose 50 µM, Mean of replicates): 0.668 | Value relative to DMSO control, drug alone (without KCN) (L1 wild-type C. elegans; dose 50 µM, individual replicates): 0.587 and 0.826 and 0.603 and 0.513 and 0.810 | Value relative to DMSO control, drug alone (without KCN) (L1 wild-type C. elegans; dose 100 µM, Mean of replicates): 0.433 | Value relative to DMSO control, drug alone (without KCN) (L1 wild-type C. elegans; dose 100 µM, individual replicates): 0.545 and 0.463 and 0.295 and 0.375 and 0.488 | Hit Type (C. elegans; hit = modified z-score < −3): KCN

c1ccc2[nH]c(-c3cscn3)nc2c1 [Thiabendazole]
C. elegans L1 relative motility, 3-hour post 200 µM KCN dilution [2]: 1.000

COC(=O)Nc1nc2ccc(Sc3ccccc3)cc2[nH]1 [fenbendazole, reference compound]
reduction in H. polygyrus worm burden (H. polygyrus; single dose 100 mg/kg, mice): 90%

COC(=O)Nc1nc2ccc(C(=O)c3ccccc3)cc2[nH]1 [mebendazole, reference compound]
reduction in worm burden, H. polygyrus murine model (H. polygyrus; single 300 mg/kg dose): 63.5% | C. elegans L1 relative motility, 3-hour post 200 µM KCN dilution [2]: 1.000

Reference: paper PMC11079024, “Identification of a family of species-selective complex I inhibitors as potential anthelmintics” (Nature Communications, 2024)
